# How the values were obtained:
# Format in all cases: cell-based, murine
# MutuDC1940 cells [1] = test: Cell death assay (propidium iodide, number of dead cells by Incucyte)
# Protocol: (§1) 1.5×10^4 cells (MutuDC1940) were plated onto 96 wells plates. Next day, cells were treated at 8 μM of compound 6 or vemurafenib or with the vehicle (DMSO) in presence of 0.3 μg/ml of propidium iodide (Sigma) to detect cell death. Proliferation and cell death were quantified by Incucyte® (Essen Biosciences) according to manufacturer's instructions over 48 h.
# (§2) The results obtained for the cell death assay are presented on FIG. 3. FIG. 3 presents the number of dead cells observed during time for a culture of MutuDC1940 cells, a murine model of histiocytosis, treated at 8 μM with compound 6 according to the invention or with vemurafenib (a MAPK/BRAF inhibitor), or with the vehicle (DMSO).
# (§3) The same experiments regarding cell proliferation (assessed by confluence in %) and cell death (assessed by number of dead cells on 13 mm^2) as in Example 1 were repeated with additional ERK/MyD88 inhibitors of formula (I): compounds 2, 7 and 17.
# (§4) The same experiments regarding cell proliferation (assessed by confluence in %) and cell death (assessed by number of dead cells on 13 mm^2) as in Example 1 were repeated with a lower concentration, which corresponds to the IC50 of vemurafenib (BRAF inhibitor).
# MutuDC1940 cells [2] = test: Proliferation assay (confluence by Incucyte)
# Protocol: as §1
# as §2, with “proliferation” for “cell death”, “2.” for “3.”, “2” for “3”, “confluence, i.e. the percentage” for “number”, “the surface of the culture dish that is covered by the cells,” for “dead cells”
# as §3, §4
# MutuDC1940 cells [3] = test: CXCL2 quantification assay (ELISA); settings: 8 μM, 16 h or 24 h treatment, vs DMSO
# Protocol: 0.5×10^6 cells (MutuDC1940) were plated onto 6-well plates. Next day, cells were treated with 8 μM of compound 6 or DMSO for 16 or 24 hours. Each condition was performed in triplicate. Supernatants were collected and murine CXCL2 was measured by ELISA according to the manufacturer's instructions (Invitrogen).
# [4] = 8 μM, over 48 h, vs vehicle (DMSO)
structure (smiles),measurement,setting,value
"CC(C)Nc1cc(-c2c[nH]c(C(=O)N[C@H](CO)c3cccc(Cl)c3)c2)c(Cl)cn1 [ulixertinib, reference compound]",cell death (number of dead cells on 13 mm^2),"MutuDC1940 cells [1]; ulixertinib at 1 μM, FIG. 12",no effect on cell death
same,cell proliferation (confluence in %),"MutuDC1940 cells [2]; ulixertinib at 1 μM, FIG. 11",only inhibit proliferation
COc1ccc(NC(=O)c2ccc3[nH]c(-c4ccc(N(C)C)cc4)nc3c2)cn1 [compound 6],cell death (number of dead cells on 13 mm^2),MutuDC1940 cells [1]; [4],induces the death of the cells
same,production of CXCL2 (cytokine production),MutuDC1940 cells [3],induces cytokine production
same,cell proliferation (confluence in %),MutuDC1940 cells [2]; [4],inhibits the proliferation of the cells
